# Reference: patent US10633379B2, “Bromodomain inhibitors” (AbbVie Inc., priority 2016, dated 2020)
# What was measured:
# BRD4 (BDI_K57-E168) = BRD4 (BDI_K57-E168) (Homo sapiens (Human), UniProt O60885); assay: TR-FRET bromodomain binding assay, BRD4 BDI; settings: mean Ki, calculated from IC50, probe Kd and probe concentration
# Method: (§1) A time-resolved fluorescence resonance energy transfer (TR-FRET) assay was used to determine the affinities of compounds of the Examples listed in Table 1 for each bromodomain of BRD4. His-tagged first (BDI: amino acids K57-E168) and second (BDII: amino acids E352-M457) bromodomains of BRD4 were expressed and purified. An Alexa647-labeled BET-inhibitor was used as the fluorescent probe in the assay.
# (§2) Compound dilution series were prepared in DMSO via an approximately 3-fold serial dilution. Compound dilutions were added directly into white, low-volume assay plates (Perkin Elmer Proxiplate 384 Plus#6008280) using a Labcyte Echo in conjunction with Labcyte Access and Thermo Multidrop CombinL robotics. Compounds were then suspended in eight microliters (μL) of assay buffer (20 mM Sodium Phosphate, pH 6.0, 50 mM NaCl, 1 mM Ethylenediaminetetraacetic acid disodium salt dihydrate, 0.01% Triton X-100, 1 mM DL-Dithiothreitol) containing His-tagged bromodomain, Europium-conjugated anti-His antibody (Invitrogen PV5596) and Alexa-647-conjugated probe.
# (§3) The final concentration of 1× assay mixture contained 2% DMSO, 12 nM His tagged BRD4 (BDI_K57-E168) and 100 nM probe or 4 nM His tagged BRD4 (BDII_E352-M457) and 30 nM probe, and 1 nM Europium-conjugated anti-His-tag antibody, and compound concentrations in the range of: 49.02 μM-0.61 nM or 0.98 μM-0.15 nM.
# (§4) After a one-hour equilibration at room temperature, TR-FRET ratios were determined using an Envision multilabel plate reader (Ex 340, Em 495/520).
# (§5) TR-FRET data were normalized to the means of 24 no-compound controls (“high”) and 8 controls containing 1 μM un-labeled probe (“low”). Percent inhibition was plotted as a function of compound concentration and the data were fit with the 4 parameter logistic equation to obtain IC50s. Inhibition constants (Ki) were calculated from the IC50s, probe Kd and probe concentration.
# BRD4 (BDII_E352-M457) = BRD4 (BDII_E352-M457) (Homo sapiens (Human), UniProt O60885); assay: TR-FRET bromodomain binding assay, BRD4 BDII; settings: mean Ki, calculated from IC50, probe Kd and probe concentration
# Method: as §1, §2, §3, §4, §5
structure (smiles),measurement,setting,value
"Cc1cccc(Cl)c1Oc1ncc(C(C)(C)O)cc1-c1cn(C)c(=O)c2[nH]c(C(=O)NC3(C)CC3(F)F)cc12 (stereo not shown) [Example 39, 4-[2-(2-chloro-6-methylphenoxy)-5-(2-hydroxypropan-2-yl)pyridin-3-yl]-N-(2,2-difluoro-1-methylcyclopropyl)-6-methyl-7-oxo-6,7-dihydro-1H-pyrrolo[2,3-c]pyridine-2-carboxamide]",Ki,BRD4 (BDI_K57-E168),640 nM
same,Ki,BRD4 (BDII_E352-M457),11.3 nM
"CCNC(=O)c1cc2c(-c3cc(C(C)(C)O)ccc3Oc3c(C)cc(SC)cc3C)cn(C)c(=O)c2[nH]1 [Example 40, 4-{2-[2,6-dimethyl-4-(methylsulfanyl)phenoxy]-5-(2-hydroxypropan-2-yl)phenyl}-N-ethyl-6-methyl-7-oxo-6,7-dihydro-1H-pyrrolo[2,3-c]pyridine-2-carboxamide]",Ki,BRD4 (BDI_K57-E168),773 nM
same,Ki,BRD4 (BDII_E352-M457),2.1 nM
"Cc1cccc(Cl)c1Oc1ccc(C(C)(C)O)cc1-c1cn(C)c(=O)c2[nH]c(C(=O)NC(C)(C)C(F)(F)F)cc12 [Example 41, 4-[2-(2-chloro-6-methylphenoxy)-5-(2-hydroxypropan-2-yl)phenyl]-6-methyl-7-oxo-N-(1,1,1-trifluoro-2-methylpropan-2-yl)-6,7-dihydro-1H-pyrrolo[2,3-c]pyridine-2-carboxamide]",Ki,BRD4 (BDI_K57-E168),759 nM
same,Ki,BRD4 (BDII_E352-M457),4.8 nM
"Cc1cccc(Cl)c1Oc1ccc(C(C)(C)O)cc1-c1cn(C)c(=O)c2[nH]c(C(=O)NC3(C)CC3(F)F)cc12 (stereo not shown) [Example 42, 4-[2-(2-chloro-6-methylphenoxy)-5-(2-hydroxypropan-2-yl)phenyl]-N-(2,2-difluoro-1-methylcyclopropyl)-6-methyl-7-oxo-6,7-dihydro-1H-pyrrolo[2,3-c]pyridine-2-carboxamide]",Ki,BRD4 (BDI_K57-E168),704 nM
same,Ki,BRD4 (BDII_E352-M457),5.7 nM
"CCNC(=O)c1cc2c(-c3cc(C(C)(C)O)cnc3Oc3c(C)cc(F)cc3C)cn(C)c(=O)c2[nH]1 [Example 43, N-ethyl-4-[2-(4-fluoro-2,6-dimethylphenoxy)-5-(2-hydroxypropan-2-yl)pyridin-3-yl]-6-methyl-7-oxo-6,7-dihydro-1H-pyrrolo[2,3-c]pyridine-2-carboxamide]",Ki,BRD4 (BDI_K57-E168),525 nM
same,Ki,BRD4 (BDII_E352-M457),5 nM
"Cc1cc(F)cc(C)c1Oc1ncc(C(C)(C)O)cc1-c1cn(C)c(=O)c2[nH]c(C(=O)NC(C)(C)C)cc12 [Example 44, N-tert-butyl-4-[2-(4-fluoro-2,6-dimethylphenoxy)-5-(2-hydroxypropan-2-yl)pyridin-3-yl]-6-methyl-7-oxo-6,7-dihydro-1H-pyrrolo[2,3-c]pyridine-2-carboxamide]",Ki,BRD4 (BDI_K57-E168),323 nM
same,Ki,BRD4 (BDII_E352-M457),7.3 nM
"Cc1cccc(C(F)(F)F)c1Oc1ncc(C(C)(C)O)cc1-c1cn(C)c(=O)c2[nH]c(C(=O)NC(C)(C)C)cc12 [Example 45, N-tert-butyl-4-{5-(2-hydroxypropan-2-yl)-2-[2-methyl-6-(trifluoromethyl)phenoxy]pyridin-3-yl}-6-methyl-7-oxo-6,7-dihydro-1H-pyrrolo[2,3-c]pyridine-2-carboxamide]",Ki,BRD4 (BDI_K57-E168),1080 nM
same,Ki,BRD4 (BDII_E352-M457),12.5 nM
"Cc1cccc(C(F)(F)F)c1Oc1ncc(C(C)(C)O)cc1-c1cn(C)c(=O)c2[nH]c(C(=O)NC(C)(C)C(F)(F)F)cc12 [Example 46, 4-{5-(2-hydroxypropan-2-yl)-2-[2-methyl-6-(trifluoromethyl)phenoxy]pyridin-3-yl}-6-methyl-7-oxo-N-(1,1,1-trifluoro-2-methylpropan-2-yl)-6,7-dihydro-1H-pyrrolo[2,3-c]pyridine-2-carboxamide]",Ki,BRD4 (BDI_K57-E168),2520 nM
same,Ki,BRD4 (BDII_E352-M457),19.5 nM
"Cc1cccc(C(F)(F)F)c1Oc1ncc(C(C)(C)O)cc1-c1cn(C)c(=O)c2[nH]c(C(=O)NC3(C)CC3(F)F)cc12 (stereo not shown) [Example 47, N-(2,2-difluoro-1-methylcyclopropyl)-4-{5-(2-hydroxypropan-2-yl)-2-[2-methyl-6-(trifluoromethyl)phenoxy]pyridin-3-yl}-6-methyl-7-oxo-6,7-dihydro-1H-pyrrolo[2,3-c]pyridine-2-carboxamide]",Ki,BRD4 (BDI_K57-E168),2060 nM
same,Ki,BRD4 (BDII_E352-M457),24.4 nM
"CCNC(=O)c1cc2c(-c3cc(C(C)(C)O)cnc3Oc3c(C)cccc3C(F)(F)F)cn(C)c(=O)c2[nH]1 [Example 48, N-ethyl-4-{5-(2-hydroxypropan-2-yl)-2-[2-methyl-6-(trifluoromethyl)phenoxy]pyridin-3-yl}-6-methyl-7-oxo-6,7-dihydro-1H-pyrrolo[2,3-c]pyridine-2-carboxamide]",Ki,BRD4 (BDI_K57-E168),1600 nM
same,Ki,BRD4 (BDII_E352-M457),6 nM
"CCNC(=O)c1cc2c(-c3cc(C(C)(C)O)ccc3Oc3c(C)cc(F)cc3Cl)cn(C)c(=O)c2[nH]1 [Example 49, 4-[2-(2-chloro-4-fluoro-6-methylphenoxy)-5-(2-hydroxypropan-2-yl)phenyl]-N-ethyl-6-methyl-7-oxo-6,7-dihydro-1H-pyrrolo[2,3-c]pyridine-2-carboxamide]",Ki,BRD4 (BDI_K57-E168),284 nM
same,Ki,BRD4 (BDII_E352-M457),1 nM
"Cc1cc(F)cc(Cl)c1Oc1ncc(C(C)(C)O)cc1-c1cn(C)c(=O)c2[nH]c(C(=O)NC(C)(C)C)cc12 [Example 51, N-tert-butyl-4-[2-(2-chloro-4-fluoro-6-methylphenoxy)-5-(2-hydroxypropan-2-yl)pyridin-3-yl]-6-methyl-7-oxo-6,7-dihydro-1H-pyrrolo[2,3-c]pyridine-2-carboxamide]",Ki,BRD4 (BDI_K57-E168),263 nM
same,Ki,BRD4 (BDII_E352-M457),4.9 nM
"CCNC(=O)c1cc2c(-c3cc(C(C)(C)O)cnc3Oc3c(C)cc(F)cc3Cl)cn(C)c(=O)c2[nH]1 [Example 52, 4-[2-(2-chloro-4-fluoro-6-methylphenoxy)-5-(2-hydroxypropan-2-yl)pyridin-3-yl]-N-ethyl-6-methyl-7-oxo-6,7-dihydro-1H-pyrrolo[2,3-c]pyridine-2-carboxamide]",Ki,BRD4 (BDI_K57-E168),325 nM
same,Ki,BRD4 (BDII_E352-M457),0.9 nM
"Cc1cc(F)cc(Cl)c1Oc1ccc(C(C)(C)O)cc1-c1cn(C)c(=O)c2[nH]c(C(=O)NC(C)(C)C)cc12 [Example 53, N-tert-butyl-4-[2-(2-chloro-4-fluoro-6-methylphenoxy)-5-(2-hydroxypropan-2-yl)phenyl]-6-methyl-7-oxo-6,7-dihydro-1H-pyrrolo[2,3-c]pyridine-2-carboxamide]",Ki,BRD4 (BDI_K57-E168),432 nM
same,Ki,BRD4 (BDII_E352-M457),4.6 nM
"Cc1cccc(C(F)(F)F)c1Oc1ccc(C(C)(C)O)cc1-c1cn(C)c(=O)c2[nH]c(C(=O)NC(C)(C)C)cc12 [Example 54, N-tert-butyl-4-{5-(2-hydroxypropan-2-yl)-2-[2-methyl-6-(trifluoromethyl)phenoxy]phenyl}-6-methyl-7-oxo-6,7-dihydro-1H-pyrrolo[2,3-c]pyridine-2-carboxamide]",Ki,BRD4 (BDI_K57-E168),4520 nM
same,Ki,BRD4 (BDII_E352-M457),6 nM
"Cc1cc(F)cc(C)c1Oc1ccc(C(C)(C)O)cc1-c1cn(C)c(=O)c2[nH]c(C(=O)NC(C)(C)C(F)(F)F)cc12 [Example 55, 4-[2-(4-fluoro-2,6-dimethylphenoxy)-5-(2-hydroxypropan-2-yl)phenyl]-6-methyl-7-oxo-N-(1,1,1-trifluoro-2-methylpropan-2-yl)-6,7-dihydro-1H-pyrrolo[2,3-c]pyridine-2-carboxamide]",Ki,BRD4 (BDI_K57-E168),4690 nM
same,Ki,BRD4 (BDII_E352-M457),6.9 nM
"Cc1cc(F)cc(C)c1Oc1ncc(C(C)(C)O)cc1-c1cn(C)c(=O)c2[nH]c(C(=O)NC(C)(C)C(F)(F)F)cc12 [Example 56, 4-[2-(4-fluoro-2,6-dimethylphenoxy)-5-(2-hydroxypropan-2-yl)pyridin-3-yl]-6-methyl-7-oxo-N-(1,1,1-trifluoro-2-methylpropan-2-yl)-6,7-dihydro-1H-pyrrolo[2,3-c]pyridine-2-carboxamide]",Ki,BRD4 (BDI_K57-E168),917 nM
same,Ki,BRD4 (BDII_E352-M457),4.7 nM
